By IC50 is commonly meant the midpoint of a concentration-inhibition curve.

One experiment addresses 5-HT2A receptors (Rattus norvegicus, UniProt P14842). In words: in-vitro affinity to 5-HT2A receptors, displacement of [3H]ketanserine (Example A1). The class given is binding. Conditions: read-out: HT2A IC50. An excerpt: The 5-HT2A receptors are exposed both to [^3H]ketanserine (a substance which is known for its affinity to the receptor) and also to the test compound. The decrease in the affinity of [^3H]ketanserine to the receptor is an indication of the affinity of the test substance to the 5-HT2A receptor.

Another experiment concerns the target T1, 5 HT2C receptor (Homo sapiens, UniProt P28335).
T1 sequence (P28335 33-458): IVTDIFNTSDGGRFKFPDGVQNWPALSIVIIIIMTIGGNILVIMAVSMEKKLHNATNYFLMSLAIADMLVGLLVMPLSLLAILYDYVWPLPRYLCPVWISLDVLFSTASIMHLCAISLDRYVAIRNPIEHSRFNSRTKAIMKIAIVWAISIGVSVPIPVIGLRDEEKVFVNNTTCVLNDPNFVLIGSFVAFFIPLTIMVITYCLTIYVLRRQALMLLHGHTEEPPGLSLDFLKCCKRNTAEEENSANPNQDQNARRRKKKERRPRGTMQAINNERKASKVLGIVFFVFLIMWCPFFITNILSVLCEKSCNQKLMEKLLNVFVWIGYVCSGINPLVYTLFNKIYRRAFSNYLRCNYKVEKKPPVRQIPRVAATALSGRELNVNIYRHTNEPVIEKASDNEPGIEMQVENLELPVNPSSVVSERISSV
As to the kind of experiment: affinity to the 5 HT2C receptor. The class given is binding.

5-HT2A receptors, sequence (P14842 whole entry): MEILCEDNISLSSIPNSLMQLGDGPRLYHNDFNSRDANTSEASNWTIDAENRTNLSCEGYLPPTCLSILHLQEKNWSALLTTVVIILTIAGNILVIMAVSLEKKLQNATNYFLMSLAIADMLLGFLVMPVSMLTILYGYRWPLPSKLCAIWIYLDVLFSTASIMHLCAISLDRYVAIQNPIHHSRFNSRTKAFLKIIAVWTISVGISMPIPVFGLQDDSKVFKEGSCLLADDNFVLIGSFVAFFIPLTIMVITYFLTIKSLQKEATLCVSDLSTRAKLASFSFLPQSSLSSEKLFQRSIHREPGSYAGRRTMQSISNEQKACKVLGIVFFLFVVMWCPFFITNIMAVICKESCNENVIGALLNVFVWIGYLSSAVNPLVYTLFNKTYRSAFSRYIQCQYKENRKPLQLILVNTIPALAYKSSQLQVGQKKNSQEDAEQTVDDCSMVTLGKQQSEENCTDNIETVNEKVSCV

As for `CN1CCN(Cc2cnn(-c3ccc(-c4ccccc4)cc3)c2-c2ccccn2)CC1` [Example 949, 1-(1-Biphenyl-4-yl-5-pyridin-2-yl-1H-pyrazol-4-ylmethyl)-4-methylpiperazine], the results for the half-maximal inhibitory concentration (IC50) on 5-HT2A receptors and at 5 HT2C receptor were 50 nM and 1000 nM, respectively.

Turning to `CN1CCCN(Cc2cnn(-c3ccc(-c4ccccc4)cc3)c2-c2ccccc2F)CC1` [Example 893, 1-[1-Biphenyl-4-yl-5-(2-fluorophenyl)-1H-pyrazol-4-ylmethyl]-4-methyl-[1,4]diazepam], the IC50 was 6.4 nM at 5-HT2A receptors and 230 nM at 5 HT2C receptor.

On to `CN1CCN(Cc2cnn(-c3ccc(C(F)(F)F)cc3)c2-c2ccccc2F)CC1` [Example 990, 1-[5-(2-Fluorophenyl)-1-(4-trifluoro-methyl-phenyl)-1H-pyrazol-4-ylmethyl]-4-methyl-piperazine], for which the IC50 was determined as 133 nM at 5-HT2A receptors and 490 nM at 5 HT2C receptor.

As for `CN1CCN(CCc2cnn(-c3ccc(-c4ccc(F)cc4)cc3)c2-c2ccccc2F)CC1` [Example 921, 1-{2-[1-(4′-Fluorobiphenyl-4-yl)-5-(2-fluoro-phenyl)-1H-pyrazol-4-yl]ethyl}-4-methylpiperazine], the IC50 on 5-HT2A receptors came to 23.3 nM; at 5 HT2C receptor it was 730 nM.

As for `CCN1CCN(Cc2cnn(-c3ccc(-c4ccc(F)cc4)cc3)c2-c2ccc(Cl)cc2)CC1` [Example 1037, 1-[5-(4-Chlorophenyl)-1-(4′-fluoro-biphenyl-4-yl)-1H-pyrazol-4-ylmethyl]-4-ethylpiperazine], the values for the IC50 at 5-HT2A receptors and against 5 HT2C receptor were 310 nM and 1000 nM, respectively.

Take `CC(C)N1CCN(Cc2cnn(-c3ccc(-c4ccc(F)cc4)cc3)c2-c2ccc(Cl)cc2)CC1` [Example 1054, 1-[5-(4-Chlorophenyl)-1-(4′-fluoro-biphenyl-4-yl)-1H-pyrazol-4-ylmethyl]-4-isopropylpiperazine]: the IC50 on 5-HT2A receptors was 440 nM; on 5 HT2C receptor, 1000 nM.

For `COCCCNCc1cnn(-c2ccc(-c3ccccc3)cc2)c1-c1ccccc1F` [Example 935, [1-Biphenyl-4-yl-5-(2-fluorophenyl)-1H-pyrazol-4-ylmethyl]-(3-methoxypropyl)amine], the 50% inhibitory concentration (IC50) came to 34 nM at 5-HT2A receptors and 1000 nM against 5 HT2C receptor.

Regarding `OC1CCN(CCc2cnn(-c3ccc(-c4ccc(F)cc4)cc3)c2-c2ccccc2F)C1` (stereo not drawn) [Example 913, 1-{2-[1-(4′-Fluorobiphenyl-4-yl)-5-(2-fluoro-phenyl)-1H-pyrazol-4-yl]ethyl}pyrrolidin-3-ol], the half-maximal inhibitory concentration (IC50) on 5-HT2A receptors turned out to be 20 nM; on 5 HT2C receptor, 620 nM.

`CN1CCN(Cc2cnn(-c3ccc(-c4ccc(Cl)cc4)cc3)c2-c2ccccc2F)CC1` [Example 920, 1-[1-(4′-Chlorobiphenyl-4-yl)-5-(2-fluoro-phenyl)-1H-pyrazol-4-ylmethyl]-4-methyl-piperazine]: the half-maximal inhibitory concentration (IC50) at 5-HT2A receptors amounted to 23 nM; against 5 HT2C receptor, 330 nM.

For `CN(C)CCc1cnn(-c2ccc(-c3ccc(F)cc3)cc2)c1-c1ccccc1F` [Example 890, {2-[1-(4′-Fluorobiphenyl-4-yl)-5-(2-fluoro-phenyl)-1H-pyrazol-4-yl]ethyl}dimethylamine], the half-maximal inhibitory concentration (IC50) at 5-HT2A receptors came out at 1.5 nM; at 5 HT2C receptor it was 27.4 nM.

Regarding `CN1CCN(Cc2cnn(-c3ccc(-c4ccc(F)c(F)c4)cc3)c2-c2ccccc2F)CC1` [Example 960, 1-[1-(3′,4′-Difluorobiphenyl-4-yl)-5-(2-fluoro-phenyl)-1H-pyrazol-4-ylmethyl]-4-methyl-piperazine], the results for the IC50 at 5-HT2A receptors and against 5 HT2C receptor were 60 nM and 340 nM, respectively.

In the case of `CN(C)Cc1cnn(-c2ccc(-c3ccccc3)cc2)c1-c1ccccc1F` [Example 914, [1-Biphenyl-4-yl-5-(2-fluorophenyl)-1H-pyrazol-4-ylmethyl]dimethylamine], the results for the 50% inhibitory concentration (IC50) on 5-HT2A receptors and against 5 HT2C receptor were 21 nM and 450 nM, respectively.

As to `CN1CCN(Cc2cnn(-c3ccc(-c4ccc(F)cc4)cc3)c2-c2ccccc2)CC1` [Example 900, 1-[1-(4′-Fluorobiphenyl-4-yl)-5-phenyl-1H-pyrazol-4-ylmethyl]-4-methylpiperazine], the values for the concentration for half-maximal inhibition (IC50) at 5-HT2A receptors and on 5 HT2C receptor were 13 nM and 310 nM, respectively.

As for `CN(C)CCN(C)Cc1cnn(-c2ccc(-c3ccccc3)cc2)c1-c1ccccc1F` [Example 912, N-[1-Biphenyl-4-yl-5-(2-fluorophenyl)-1H-pyrazol-4-ylmethyl]-N,N′,N′-trimethylethane-1,2-diamine], the 50% inhibitory concentration (IC50) on 5-HT2A receptors is 20 nM; against 5 HT2C receptor, 920 nM.

As for `COCCNCc1cnn(-c2ccc(-c3ccccc3)cc2)c1-c1ccccc1F` [Example 905, [1-Biphenyl-4-yl-5-(2-fluorophenyl)-1H-pyrazol-4-ylmethyl]-(2-methoxyethyl)amine], the concentration for half-maximal inhibition (IC50) on 5-HT2A receptors stood at 16 nM; against 5 HT2C receptor it was 1000 nM.

Turning to `NCc1cnn(-c2ccc(-c3ccccc3)cc2)c1-c1ccccc1` [Example 915, C-(1-Biphenyl-4-yl-5-phenyl-1H-pyrazol-4-yl)-methylamine], the figures for the IC50 on 5-HT2A receptors and at 5 HT2C receptor were 21 nM and 920 nM, respectively.

With `CC(=O)NC1CCN(Cc2cnn(-c3ccc(-c4ccccc4)cc3)c2-c2ccccc2F)C1` (stereo not drawn) [Example 929, N-{1-[1-Biphenyl-4-yl-5-(2-fluoro-phenyl)-1H-pyrazol-4-ylmethyl]pyrrolidin-3-yl}acetamide], the concentration for half-maximal inhibition (IC50) is 29 nM at 5-HT2A receptors and 1000 nM on 5 HT2C receptor.

For `CN1CCN(Cc2cnn(-c3ccc(-c4ccccc4F)cc3)c2-c2ccc(F)cc2)CC1` [Example 1013, 1-[1-(2′-Fluorobiphenyl-4-yl)-5-(4-fluoro-phenyl)-1H-pyrazol-4-ylmethyl]-4-methyl-piperazine], the 50% inhibitory concentration (IC50) at 5-HT2A receptors stood at 210 nM; against 5 HT2C receptor, 1000 nM.

As for `CC(C)N1CCN(Cc2cnn(-c3ccc(-c4ccc(F)cc4)cc3)c2-c2cccc(Cl)c2)CC1` [Example 943, 1-[5-(3-Chlorophenyl)-1-(4′-fluorobiphenyl-4-yl)-1H-pyrazol-4-ylmethyl]-4-isopropylpiperazine], the IC50 on 5-HT2A receptors is 41 nM; at 5 HT2C receptor, 1000 nM.

Regarding `COc1cccc(-c2ccc(-n3ncc(CN4CCN(C)CC4)c3-c3ccccc3F)cc2)c1` [Example 930, 1-[5-(2-Fluorophenyl)-1-(3′-methoxy-biphenyl-4-yl)-1H-pyrazol-4-ylmethyl]-4-methyl-piperazine], the 50% inhibitory concentration (IC50) is 29 nM on 5-HT2A receptors and 690 nM against 5 HT2C receptor.

Consider `CN1CCN(Cc2cnn(-c3ccc(-c4cc(F)ccc4F)cc3)c2-c2ccc(F)cc2)CC1` [Example 1021, 1-[1-(2′,5′-Difluorobiphenyl-4-yl)-5-(4-fluoro-phenyl)-1H-pyrazol-4-ylmethyl]-4-methyl-piperazine], for which the IC50 came to 240 nM on 5-HT2A receptors and 1000 nM against 5 HT2C receptor.

With `CN(C)Cc1cnn(-c2ccc(C(F)(F)F)cn2)c1-c1ccccc1F` [Example 937, [5-(2-Fluorophenyl)-1-(5-trifluoro-methylpyridin-2-yl)-1H-pyrazol-4-ylmethyl]dimethylamine], the results for the IC50 at 5-HT2A receptors and at 5 HT2C receptor were 35 nM and 1000 nM, respectively.

Consider `COc1ccc(-c2ccc(-n3ncc(CN4CCN(C)CC4)c3-c3ccccc3F)cc2)cc1` [Example 895, 1-[5-(2-Fluorophenyl)-1-(4′-methoxy-biphenyl-4-yl)-1H-pyrazol-4-ylmethyl]-4-methyl-piperazine], for which the concentration for half-maximal inhibition (IC50) on 5-HT2A receptors was 7.5 nM; against 5 HT2C receptor it was 1150 nM.

As to `CC(C)N1CCN(Cc2cnn(-c3ccc(-c4ccc(F)cc4)cc3)c2-c2ccccc2Cl)CC1` [Example 997, 1-[5-(2-Chlorophenyl)-1-(4′-fluoro-biphenyl-4-yl)-1H-pyrazol-4-ylmethyl]-4-isopropylpiperazine], the IC50 on 5-HT2A receptors is 160 nM; against 5 HT2C receptor it was 1000 nM.

On to `OCCNCc1cnn(-c2ccc(-c3ccccc3)cc2)c1-c1ccccc1F` [Example 892, 2-{[1-Biphenyl-4-yl-5-(2-fluorophenyl)-1H-pyrazol-4-ylmethyl]amino}ethanol], for which the values for the 50% inhibitory concentration (IC50) on 5-HT2A receptors and on 5 HT2C receptor were 5.2 nM and 420 nM, respectively.

As for `CN1CCN(Cc2cnn(-c3ccc(-c4ccc(F)cc4)cc3)c2-c2ccccc2F)CC1` [Example 902, 1-[1-(4′-Fluorobiphenyl-4-yl)-5-(2-fluoro-phenyl)-1H-pyrazol-4-ylmethyl]-4-methyl-piperazine], the results for the IC50 on 5-HT2A receptors and against 5 HT2C receptor were 13.1 nM and 215 nM, respectively.

With `Fc1ccccc1-c1c(CN2CCc3ccccc3C2)cnn1-c1ccc(-c2ccccc2)cc1` [Example 964, 2-[1-Biphenyl-4-yl-5-(2-fluoro-phenyl)-1H-pyrazol-4-ylmethyl]-1,2,3,4-tetrahydro-iso-quinoline], the concentration for half-maximal inhibition (IC50) on 5-HT2A receptors was 70 nM; on 5 HT2C receptor, 1000 nM.

Consider `CN1CCN(Cc2cnn(-c3ccc(-c4ccccc4)cc3)c2-c2ccccc2F)CC1` [Example 926, 1-[1-Biphenyl-4-yl-5-(2-fluoro-phenyl)-1H-pyrazol-4-ylmethyl]-4-methylpiperazine], for which the 50% inhibitory concentration (IC50) came to 27.3 nM at 5-HT2A receptors and 600 nM at 5 HT2C receptor.

On to `CN1CCN(Cc2cnn(-c3ccc(-c4cc(F)ccc4F)cc3)c2-c2ccccc2)CC1` [Example 981, 1-[1-(2′,5′-Difluorobiphenyl-4-yl)-5-phenyl-1H-pyrazol-4-ylmethyl]-4-methylpiperazine], for which the concentration for half-maximal inhibition (IC50) on 5-HT2A receptors came out at 110 nM; against 5 HT2C receptor, 1000 nM.

As for `CN1CCN(NCc2cnn(-c3ccc(-c4ccccc4)cc3)c2-c2ccccc2F)CC1` [Example 903, [1-Biphenyl-4-yl-5-(2-fluorophenyl)-1H-pyrazol-4-ylmethyl]-(4-methylpiperazin-1-yl)amine], the figures for the IC50 at 5-HT2A receptors and at 5 HT2C receptor were 14 nM and 470 nM, respectively.

These data come from US20060264419A1 (priority 2003, published 2006).
